Measured values as given in US20070128217A1 (priority 2003, published 2007).

Legend:
[1] = tested on: control sera (pooled serum of ten healthy LUMC hospital workers; commercial negative donor pooled serum from the Dutch bloodbank); type: binding, human; design: Binding of Control serum LUMC to linear peptides / Binding of Control serum Blood-bank to linear peptides / Binding of Control serum LUMC to looped peptides / Binding of Control Serum Blood-Bank to Looped peptides / Binding of Control serum LUMC to linear peptides of the protein M of SARS-CoV Urbani / Binding of Control serum Blood-bank to linear peptides of the protein M of SARS-CoV Urbani / Binding of Control serum LUMC to looped peptides of the protein M of SARS-CoV Urbani / Binding of Control Serum Blood-Bank to Looped peptides of the protein M of SARS-CoV Urbani: unit not given here
[2] = tested on: rabbit serum obtained by immunizing a rabbit with the SARS-CoV strain Frankfurt 1; type: binding; design: Binding of a rabbit serum to linear peptides / Binding of a rabbit serum to looped peptides / Rabbit serum linear peptides / Rabbit serum looped peptides / Binding of a rabbit serum to linear peptides of protein N of SARS-CoV Urbani (Rabbit serum linear peptides) / Binding of a rabbit serum to looped/cyclic peptides of protein N of SARS-CoV Urbani (Rabbit serum looped peptides): unit not given here
[3] = tested on: antibodies in sera from SARS patients (sera 1a, 1b, 2, 6, 37, 62, London, SARS-yellow, SARS-green); type: binding, human; design: Binding of serum 6 to linear peptides of protein X1 of SARS-CoV Urbani / Binding of serum 37 to linear peptides of protein X1 of SARS-CoV Urbani / Binding of serum 6 to looped/cyclic peptide (PEPSCAN-ELISA) / Binding of serum 37 to looped/cyclic peptide (PEPSCAN-ELISA) / Binding of serum 37 to looped/cyclic peptides of protein X1 of SARS-CoV Urbani / Binding of serum 6 to linear peptides of protein X2 / Binding of serum 37 to linear peptides of protein X2 / Binding of serum 37 to looped/cyclic peptides of protein X2 of SARS-CoV Urbani / Binding of serum 6 to linear peptides of protein M of SARS-CoV Urbani / Binding of serum 37 to linear peptides of protein M of SARS-CoV Urbani / Binding of serum 6 to looped/cyclic peptides of protein M of SARS-CoV Urbani / Binding of serum 37 to looped/cyclic peptides of protein M of SARS-CoV Urbani / Binding of serum 6 to linear peptides of protein X3 of SARS-CoV Urbani / Binding of serum 37 to linear peptides of protein X3 of SARS-CoV Urbani / Binding of serum 37 to looped/cyclic peptides of protein X3 of SARS-CoV Urbani / Binding of serum 6 to linear peptides of protein X4 of SARS-CoV Urbani / Binding of serum 37 to linear peptides of protein X4 of SARS-CoV Urbani / Binding of serum 37 to looped/cyclic peptides of protein X4 of SARS-CoV Urbani / Binding of serum 6 to linear peptides of protein X5 of SARS-CoV Urbani / Binding of serum 37 to linear peptides of protein X5 of SARS-CoV Urbani / Binding of serum 37 to looped/cyclic peptides of protein X5 of SARS-CoV Urbani / Binding of serum 6 to linear peptides of protein N of SARS-CoV Urbani / Binding of serum 37 to linear peptides of protein N of SARS-CoV Urbani / Binding of serum 6 to linear peptide (PEPSCAN-ELISA) / Binding of serum 1a to looped/cyclic peptides of protein N of SARS-CoV Urbani / Binding of serum 1b to looped/cyclic peptides of protein N of SARS-CoV Urbani / Binding of serum 2 to looped/cyclic peptides of protein N of SARS-CoV Urbani / Binding of serum 6 to looped/cyclic peptides of protein N of SARS-CoV Urbani / Binding of serum 37 to looped/cyclic peptides of protein N of SARS-CoV Urbani / Binding of serum 62 to looped/cyclic peptides of protein N of SARS-CoV Urbani / Binding of serum London to looped/cyclic peptides of protein N of SARS-CoV Urbani / Binding of serum SARS-green to looped/cyclic peptides of protein N of SARS-CoV Urbani: unit not given here

## SQRVGTDSGFAAYNR
[1]
  Binding of Control Serum Blood-Bank to Looped peptides of the protein M of SARS-CoV Urbani: 0.7
  Binding of Control serum Blood-bank to linear peptides of the protein M of SARS-CoV Urbani: 0.9
  Binding of Control serum LUMC to linear peptides of the protein M of SARS-CoV Urbani: 1.0
  Binding of Control serum LUMC to looped peptides of the protein M of SARS-CoV Urbani: 0.6
[2]
  Rabbit serum linear peptides: 0.2
  Rabbit serum looped peptides: 0.1
[3]
  Binding of serum 1a to linear peptides of protein M of SARS-CoV Urbani: 0.8
  Binding of serum 1a to looped/cyclic peptides of protein M of SARS-CoV Urbani: 0.5
  Binding of serum 1b to linear peptides of protein M of SARS-CoV Urbani: 0.6
  Binding of serum 1b to looped/cyclic peptides of protein M of SARS-CoV Urbani: 0.4
  Binding of serum 2 to linear peptides of protein M of SARS-CoV Urbani: 0.4
  Binding of serum 2 to looped/cyclic peptides of protein M of SARS-CoV Urbani: 0.7
  Binding of serum 6 to linear peptides of protein M of SARS-CoV Urbani: 0.6
  Binding of serum 6 to looped/cyclic peptides of protein M of SARS-CoV Urbani: 0.6
  Binding of serum 37 to linear peptides of protein M of SARS-CoV Urbani: 0.5
  Binding of serum 37 to looped/cyclic peptides of protein M of SARS-CoV Urbani: 0.2
  Binding of serum 62 to linear peptides of protein M of SARS-CoV Urbani: 0.4
  Binding of serum 62 to looped/cyclic peptides of protein M of SARS-CoV Urbani: 0.5
  Binding of serum London to linear peptides of protein M of SARS-CoV Urbani: 0.4
  Binding of serum London to looped/cyclic peptides of protein M of SARS-CoV Urbani: 0.2
  Binding of serum SARS-green to linear peptides of protein M of SARS-CoV Urbani: 0.5
  Binding of serum SARS-green to looped/cyclic peptides of protein M of SARS-CoV Urbani: 0.4
  Binding of serum SARS-yellow to linear peptides of protein M of SARS-CoV Urbani: 0.5
  Binding of serum SARS-yellow to looped/cyclic peptides of protein M of SARS-CoV Urbani: 0.6

## SRRRLLACLCKHKKV
[1]
  Binding of Control Serum Blood-Bank to Looped peptides: 0.2
  Binding of Control serum Blood-bank to linear peptides: 0.9
  Binding of Control serum LUMC to linear peptides: 0.6
  Binding of Control serum LUMC to looped peptides: 0.2
[2]
  Binding of a rabbit serum to linear peptides: 0.3
  Binding of a rabbit serum to looped peptides: 0.4
[3]
  Binding of serum 1a to looped/cyclic peptides of protein X2 of SARS-CoV Urbani: 0.2
  Binding of serum 1b to looped/cyclic peptides of protein X2 of SARS-CoV Urbani: 0.2
  Binding of serum 2 to looped/cyclic peptides of protein X2 of SARS-CoV Urbani: 0.1
  Binding of serum 6 to looped/cyclic peptides of protein X2 of SARS-CoV Urbani: 0.0
  Binding of serum 37 to looped/cyclic peptides of protein X2 of SARS-CoV Urbani: 0.2
  Binding of serum 62 to looped/cyclic peptides of protein X2 of SARS-CoV Urbani: 0.3
  Binding of serum London to looped/cyclic peptides of protein X2 of SARS-CoV Urbani: 0.1
  Binding of serum SARS-green to looped/cyclic peptides of protein X2 of SARS-CoV Urbani: 0.2
  Binding of serum SARS-yellow to looped/cyclic peptides of protein X2 of SARS-CoV Urbani: 0.2
  Recognition of the peptide by sera of SARS-CoV infected individuals, and form (linear, looped/cyclic) in which it is recognized: recognized in linear form

## STAWLCALGKVLPFH
[1]
  Binding of Control Serum Blood-Bank to Looped peptides: 0.5
  Binding of Control serum Blood-bank to linear peptides: 0.9
  Binding of Control serum LUMC to linear peptides: 0.6
  Binding of Control serum LUMC to looped peptides: 0.6
[2]
  Rabbit serum linear peptides: 0.5
  Rabbit serum looped peptides: 0.7
[3]
  Binding of serum 1a to linear peptides of protein X5 of SARS-CoV Urbani: 0.8
  Binding of serum 1a to looped/cyclic peptides of protein X5 of SARS-CoV Urbani: 0.6
  Binding of serum 1b to linear peptides of protein X5 of SARS-CoV Urbani: 0.6
  Binding of serum 1b to looped/cyclic peptides of protein X5 of SARS-CoV Urbani: 0.4
  Binding of serum 2 to linear peptides of protein X5 of SARS-CoV Urbani: 0.6
  Binding of serum 2 to looped/cyclic peptides of protein X5 of SARS-CoV Urbani: 0.6
  Binding of serum 6 to linear peptides of protein X5 of SARS-CoV Urbani: 0.7
  Binding of serum 6 to looped/cyclic peptides of protein X5 of SARS-CoV Urbani: 0.5
  Binding of serum 37 to linear peptides of protein X5 of SARS-CoV Urbani: 0.7
  Binding of serum 37 to looped/cyclic peptides of protein X5 of SARS-CoV Urbani: 0.4
  Binding of serum 62 to linear peptides of protein X5 of SARS-CoV Urbani: 0.8
  Binding of serum 62 to looped/cyclic peptides of protein X5 of SARS-CoV Urbani: 0.7
  Binding of serum London to linear peptides of protein X5 of SARS-CoV Urbani: 0.7
  Binding of serum London to looped/cyclic peptides of protein X5 of SARS-CoV Urbani: 0.2
  Binding of serum SARS-green to linear peptides of protein X5 of SARS-CoV Urbani: 0.6
  Binding of serum SARS-green to looped/cyclic peptides of protein X5 of SARS-CoV Urbani: 0.3
  Binding of serum SARS-yellow to linear peptides of protein X5 of SARS-CoV Urbani: 0.3
  Binding of serum SARS-yellow to looped/cyclic peptides of protein X5 of SARS-CoV Urbani: 1.0
